Measured values taken from PubChem BioAssay (NCI).
Several values for one entry are separate records, joined by “and”; a condition that tells them apart may be missing. Equal values may be shown once.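 Cells were grown in 96-well plates and exposed to each compound for 48 hours at five concentrations; endpoints were interpolated linearly between bracketing concentrations, or set to the highest concentration if not reached. Here, GI50 denotes the concentration required for 50% inhibition of growth. TGI marks complete inhibition of growth.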

Legend:
Test in all cases: NCI anticancer screen, dose series, 48 h
IGROV1 ovarian = tested on: IGROV1 ovarian
NCI-H226 lung = tested on: NCI-H226 lung
SF-539 CNS = tested on: SF-539 CNS
NCI-H522 lung = tested on: NCI-H522 lung
K-562 leukemia = tested on: K-562 leukemia
UACC-257 melanoma = tested on: UACC-257 melanoma
HL-60(TB) leukemia = tested on: HL-60(TB) leukemia
OVCAR-4 ovarian = tested on: OVCAR-4 ovarian
HS 578T breast = tested on: HS 578T breast
BT-549 breast = tested on: BT-549 breast

| Structure (SMILES) | GI50 (IGROV1 ovarian) [µM] | TGI (IGROV1 ovarian) | GI50 (NCI-H226 lung) [µM] | TGI (NCI-H226 lung) [µM] | GI50 (SF-539 CNS) [µM] | TGI (SF-539 CNS) [µM] | GI50 (NCI-H522 lung) [µM] | TGI (NCI-H522 lung) [µM] | GI50 (K-562 leukemia) [µM] | TGI (K-562 leukemia) [µM] | GI50 (UACC-257 melanoma) [µM] | TGI (UACC-257 melanoma) [µM] | GI50 (HL-60(TB) leukemia) [µM] | TGI (HL-60(TB) leukemia) | GI50 (OVCAR-4 ovarian) [µM] | TGI (OVCAR-4 ovarian) [µM] | GI50 (HS 578T breast) [µM] | TGI (HS 578T breast) [µM] | GI50 (BT-549 breast) [µM] | TGI (BT-549 breast) [µM] |
| --- | --- | --- | --- | --- | --- | --- | --- | --- | --- | --- | --- | --- | --- | --- | --- | --- | --- | --- | --- | --- |
| CC(=O)[CH-]C(C)=O.CC(=O)[CH-]C(C)=O.[Cl-].[O]=[V] | 11.1 | 64.2 µM | 27.5 | 76.1 | 17.5 | 37.5 | > 100 | > 100 | – | – | – | – | – | – | – | – | – | – | – | – |
| CCC[CH2][Sn]1([CH2]CCC)[O]CC[S]1 | 1.55 | 4.64 µM | 1.02 | 2.36 | 0.736 | 2.03 | 0.041 | 0.187 | 0.15 | 1.28 | 0.679 | 2.04 | 0.268 | 1.22 µM | 1.57 | 3 | – | – | – | – |
| C[N+](C)(C)C1CC([N+](C)(C)C)C2c3ccccc3C21 (centres undefined) | – | > 100 µM | – | > 100 | – | > 100 | – | > 100 | – | > 100 | – | > 100 | – | > 100 µM | – | > 100 | – | – | – | – |
| CCn1c(SCC(=O)Nc2cc(C(F)(F)F)ccc2Cl)nc2ccccc2c1=O | 28.1 | > 100 µM | 29.9 | > 100 | 40.1 | > 100 | – | – | > 100 | > 100 | – | – | > 100 | > 100 µM | 22.5 | > 100 | 13 | 48.7 | 35 | > 100 |
| C1C[OH+]CCNCC[OH+]CC[OH+]CCN1.N.[Cl-].[Pt+4] | 49.6 | > 100 µM | 38.2 | > 100 | > 100 | > 100 | 14.2 | 48.7 | 41.5 | > 100 | 78.8 | > 100 | > 100 | > 100 µM | > 100 | > 100 | – | – | – | – |
| COc1ccc(CNCCCN2C(=O)c3ccc4c5c(ccc(c35)C2=O)C(=O)N(CCCNCc2ccc(OC)c(OC)c2OC)C4=O)c(OC)c1OC | 0.0795 | 0.189 µM | 0.337 | 1.1 | 0.102 | 0.235 | 0.0804 | 0.163 | 0.168 | 0.515 | 0.0921 | 0.167 | – | – | 0.0599 | 0.127 | 0.568 | 3.15 | 0.262 | 0.503 |
| O=C1c2cc3c(cc2-c2c1c1ccc(F)cc1c(=O)n2C[C@H](O)[C@H](O)[C@H](O)CO)OCO3 | 0.322 | > 100 µM | – | – | – | – | 0.0313 | 0.228 | 0.136 | > 100 | – | – | 0.148 | 0.749 µM | 0.28 | 34.9 | 0.506 | 9.62 | 0.149 | 1.05 |
| O=[N+]([O-])c1ccc(N=Nc2c(Cl)cc(O)cc2Cl)cc1 | – | – | 2.83 | 11.3 | 3.1 | 30.6 | 0.473 | 4.09 | 0.605 | > 100 | 1.65 | 4.49 | 0.382 | 2.86 µM | 1.39 | 12 | 1.11 | 9.06 | 1.67 | 6.41 |
| O=[N+]([O-])c1cc(I)cc(/C=N/NS(=O)(=O)c2ccc(Cl)cc2)c1O | – | 45.1 µM | – | – | – | 51.5 | – | 33.2 | – | 57.1 | – | 53.9 | – | 55.8 µM | – | 85.6 | – | – | – | – |
| COc1c(C)c(OC)c(C(=O)CC(C)C)c(OC)c1C | – | > 100 µM | – | > 100 | – | > 100 | – | > 100 | – | – | – | > 100 | – | 50.5 µM | – | > 100 | – | > 100 | – | > 100 |
| O=C(c1ccccc1)C1OC1C(=O)c1ccccc1 (centres undefined) | 3.56 | 15 µM | 5.24 | > 100 | 3.77 | 12.6 | 0.323 | 2.24 | – | – | 5.75 | 29.6 | – | – | 3.84 | 26.3 | 3.01 | > 100 | 3.28 | 14.2 |
| O=C(O)CCSC(=O)Nc1cccc2ccccc12 | – | > 100 µM | – | > 100 | – | > 100 | – | – | – | > 100 | – | > 100 | – | – | – | > 100 | – | – | – | – |
| Brc1ccc(C=NC23CC4CC(CC(C4)C2)C3)cc1 | – | > 100 µM | – | > 100 | – | > 100 | – | > 100 | – | > 100 | – | > 100 | – | > 100 µM | – | > 100 | – | – | – | – |
| CC[O-].CC[O-].O=C([CH-]C(=O)c1ccccc1)CCCCCCC(=O)[CH-]C(=O)c1ccccc1.[Ti+4] | > 100 | > 100 µM | – | – | > 100 | > 100 | – | – | > 100 | > 100 | > 100 | > 100 | > 100 | > 100 µM | > 100 | > 100 | – | – | – | – |
| C=CCOc1ccc(N)c([N+](=O)[O-])c1 | – | > 100 µM | – | > 100 | – | > 100 | – | > 100 | – | > 100 | – | > 100 | – | > 100 µM | – | – | – | > 100 | – | > 100 |
| Cc1ccc(/C=N/NS(=O)(=O)c2ccccc2)cc1C | – | > 100 µM | – | > 100 | – | > 100 | – | – | – | > 100 | – | > 100 | – | > 100 µM | – | > 100 | – | – | – | – |
| CC(C)CCCCCCCCCCCCC(=O)NCC(=O)NC1C(C)OC(Nc2ncnc3nc[nH]c23)C(O)C1O (centres undefined) | 0.00319 | 0.082 µM and < 0.0444 µM | – | – | 0.011 | – | 0.00137 | 0.0182 | 0.0414 | – | – | 0.472 | 0.001 | 0.0046 µM and 0.0141 µM | 0.0148 | 0.00803 | – | – | – | – |
| CCOC(=O)CNC(=O)OCc1ccccc1 | – | > 100 µM | – | – | – | > 100 | – | > 100 | – | > 100 | – | > 100 | – | > 100 µM | – | – | – | – | – | – |
| CCN(CC)CCCNc1n[n+]([O-])c2ccccc2[n+]1[O-] | – | 24.2 µM | – | 85.6 | – | 68.9 | – | 26.5 | – | 76.1 | – | 54.7 | – | 19.7 µM | – | > 100 | – | – | – | > 100 |
